Results: patent US4748179A, “β-carbolin-3-carboxylic acid derivatives and their use as benzodiazepine antagonists” (Schering Aktiengesellschaft, priority 1983, dated 1988)

Key:
[1] = molecular target: benzodiazepine receptors; assay: Displacement of 3H-flunitrazepam specific binding in vitro, rat forebrain membrane suspension; conditions: 3H-flunitrazepam 1.0 nM, 0° C., pH 7.1
[2] = tested on: benzodiazepine receptors; assay: In vivo displacement of 3H-flunitrazepam binding to benzodiazepine receptors in living brain; conditions: mice, usually subcutaneously, 3H-flunitrazepam i.v. 15 minutes later
Text: The pharmaceutical properties of the compounds of the invention have been investigated by determining their capability for displacing radioactively labelled flunitrazepam from such benzodiazepine receptors, and their ability to antagonize pentazole induced convulsions.
The displacement activity of the compounds of the invention has been determined by determining the IC50 value and ED50 value.
The ED50 value represents the dose (mg/kg) of a test substance which causes the specific binding of flunitrazepam to benzodiazepine receptors in a living brain to be reduced to 50% of the control value. Such an in vivo test is carried out as follows:
Groups of mice are injected with the test substance at different doses and usually subcutaneously. 15 minutes later ^3 H-flunitrazepam is giving intravenously to the mice and after further 20 minutes the mice are killed, […]. The ED50 value is determined from dose-response curves.

[3] = tested on: pentazole-induced convulsions; assay: Antagonism of pentazole-induced convulsions; assay type: in vivo; conditions: ip; read-out: Antagonism of pentazole-induced convulsions ED50 i.p.
Text: The antagonism of pentazole induced convulsions was investigated.
The test has been performed according to known test models in pharmacology,e.g., as described in R. A. Turner, Screening Methods in Pharmacology, Academic Press, N.Y. and London 1965, esp. p. 164 ff. or Woodbury, P. M., Perry, I. K. and Schmidt, R. P. Antiepileptic Drugs, Raven Press, N.Y. 1972.

[4] = Inhibition of motor coordination (ataxia); assay type: in vivo; conditions: mouse, sc, mice, 30 minutes after subcutaneous administration, read-out: Inhibition of/Ataxia (motor-incoordination)
Procedure: The inhibition of motor coordination in mice was also studied 30 minutes after subcutaneous administration in accordance with a method described in the litterature (Buus Lassen et al., Acta Pharmacol. et Toxicol., 1971, 39, 1-16).

[5] = tested on: lorazepam-induced ataxia in NMRI mice; assay: Antagonism of benzodiazepine (lorazepam) action in motor incoordination, rotating rod; assay type: in vivo
Procedure: Antagonism of benzodiazepine action in motor incoordination.
NMRI mice (20-25 g) were placed on a horizontal wooden rod (diameter 4.3 cm), rotating at a rate of 6 min^-1, 8 cm above the bench. […] The ability of the compounds of this invention to antagonize the effect of benzodiazepine in motor coordination has been determined by determining the ED50 -value. […] The test was performed as follows:
At least 3 groups of mice (8 mice in each group) were injected intraperitoneally with 2 mg/kg lorazepam. 15 minutes later each group of mice were injected with different doses of the test compounds and after further 15 minutes the test for ataxia was performed. Based on the data obtained the ED50 -value was calculated.

[6] = tested on: pentazole-induced seizures in diazepam-treated NMRI mice; assay: Antagonism of benzodiazepine (diazepam) action on pentazole-induced seizures; assay type: in vivo; conditions: i.p., against 5 mg/kg diazepam i.p.; pentazole 150 mg/kg s.c.; clonic seizures in 50% of animals
Procedure: Antagonism of Benzodiazepine action on pentazol-induced seizures in NMRI mice (20-25 g).
15 minutes later each group of mice were injected intraperitoneally with different doses of the test compounds and after further 15 minutes the mice received 150 mg/kg pentazol, administered subcutaneously. Clonic seizures within the next 30 minutes were noted. Based on the data obtained the ED50 value was calculated.

Compound | 3H-flunitrazepam binding in vitro IC50 [1] [ng/mL] | 3H-flunitrazepam binding in vivo ED50 [2] [mg/kg] | ED50 [3] [mg/kg] | ED50 at 0.5 h [4] [mg/kg] | induction of ataxia (more than three falls from the rod within 2 min) ([5]; 2 mg/kg i.p. 30 min before test) | ED50, antagonism of benzodiazepine action on pentazole-induced seizures [6] [mg/kg] | ED50, antagonism of benzodiazepine action in motor incoordination ([5]; against 2 mg/kg lorazepam i.p., ataxia in 50% of animals, compound 15 minutes after lorazepam) [mg/kg]
CCOC(=O)c1ncc2[nH]c3cccc(OC)c3c2c1CC [CH3, CH3 CH2, 4-Ethyl-5-methoxy-β-carboline-3-carboxylic acid ethylester] | 1.4 | 3.0 | > 100 | > 100 | – | – | –
O=C1Nc2ccc(Cl)cc2C(c2ccccc2Cl)=NC1O (centres unmarked) [Lorazepam, reference compound] | 1 | 0.2 | 0.1 | 0.3 | induced ataxia in all animals | – | –
CCOC(=O)c1ncc2[nH]c3cccc(OC(C)C)c3c2c1C [(CH3)2 CH, CH3, 5-isopropoxy-4-methyl-β-carboline-3-carboxylic acid ethylester] | 0.6 | 0.3 | > 100 | > 100 | – | 0.7 | 1.0
CN1C(=O)CN=C(c2ccccc2)c2cc(Cl)ccc21 [Diazepam, reference compound] | 3 | 1.5 | 3 | 3 | – | – | –
CCOC(=O)c1cc2c(cn1)[nH]c1cccc(OC(C)C)c12 [(CH3)2 CH, H, 5-Isopropoxy-β-carboline-3-carboxylic acid ethylester] | 0.4 | 6.4 | > 100 | > 100 | – | – | –
